How the values were obtained:
GBM8401 = experiment: MTT assay, GBM8401 tumor cell; conditions: for Cell survival rate (%) GBM8401: concentration 10 μM, tumor cell; for inhibitory effect against tumor cell GBM8401: survival rate less than 80%
GBM8901 = experiment: MTT assay, GBM8901 tumor cell; conditions: for Cell survival rate (%) GBM8901: concentration 10 μM, tumor cell
SVG p12 = experiment: MTT assay, SVG p12 normal cell; conditions: for Cell survival rate (%) SVG p12: concentration 10 μM, normal cell
[1] = tested on: SVG p12, GBM8401 and GBM8901; experiment: MTT assay, normal cell versus tumor cells (categories 39-3 to 39-7); conditions: tumor cell survival rate less than 80%; for category 39-5: survival rate higher than 80% for normal cell SVG p12 and only inhibits growth of tumor cell GBM8901: FIG. 5C; for category 39-3: survival rate higher than 80% for normal cell SVG p12 and inhibits growth of both tumor cells GBM8401 and GBM8901: FIG. 5A

| SMILES | Cell survival rate (%) GBM8401 (GBM8401) [%] | Cell survival rate (%) GBM8901 (GBM8901) [%] | Cell survival rate (%) SVG p12 (SVG p12) [%] | category 39-5: survival rate higher than 80% for normal cell SVG p12 and only inhibits growth of tumor cell GBM8901 [1] | category 39-3: survival rate higher than 80% for normal cell SVG p12 and inhibits growth of both tumor cells GBM8401 and GBM8901 [1] | without cell toxicity for normal cell SVGP p12 (SVG p12; survival rate higher than 80%) | category 39-4: survival rate higher than 80% for normal cell SVG p12 and only inhibits growth of tumor cell GBM8401 ([1]; FIG. 5B) | inhibitory effect against tumor cell GBM8401 (GBM8401) | inhibitory effect against tumor cell GBM8901 (GBM8901; survival rate less than 80%) |
| --- | --- | --- | --- | --- | --- | --- | --- | --- | --- |
| CCCCSc1nc2ccc3c(c2[nH]1)C(=O)c1ccccc1C3=O [f1-3, 2-(Butylthio)-1H-anthra[1,2-d]imidazole-6,11-dione] | 78 ± 16 | 10 ± 4 | 98 ± 7 | in this category | – | – | – | – | – |
| Cc1ccccc1CSc1nc2ccc3c(c2[nH]1)C(=O)c1ccccc1C3=O [f1-4, 2-(2-Methylbenzylthio)-1H-anthra[1,2-d]imidazole-6,11-dione] | 25 ± 10 | 18 ± 8 | 58 ± 5 | – | – | – | – | – | – |
| COC(=O)CCCSc1nc2ccc3c(c2[nH]1)C(=O)c1ccccc1C3=O [f1-5, Methyl-(6,11-dioxo-6,11-dihydro-1H-anthra[1,2-d]imidazol-2-ylthio)butanoate] | 70 ± 10 | 80 ± 2 | 92 ± 5 | – | – | – | – | – | – |
| COC(=O)/C=C/CSc1nc2ccc3c(c2[nH]1)C(=O)c1ccccc1C3=O [f1-6, (E)-methyl 4-(6,11-dioxo-6,11-dihydro-1H-anthra[1,2-d]imidazol-2-ylthio)but-2-enoate] | 82 ± 7 | 44 ± 5 | 90 ± 6 | in this category | – | – | – | – | – |
| C#CCSc1nc2ccc3c(c2[nH]1)C(=O)c1ccccc1C3=O [f1-7, 2-(prop-2-ynylthio)-1H-anthra[1,2-d]imidazole-6,11-dione] | 38 ± 10 | 7 ± 2 | 98 ± 2 | in this category | – | – | – | – | – |
| O=C1c2ccccc2C(=O)c2c1ccc1nc(SCCCCCl)[nH]c21 [f1-8, 2-(4-Chlorobutylthio)-1H-anthra[1,2-d]imidazole-6,11-dione] | 43 ± 10 | 65 ± 10 | 66 ± 3 | – | – | – | – | – | – |
| O=C1c2ccccc2C(=O)c2c1ccc1nc(SCCCCCCCl)[nH]c21 [f1-10, 2-(6-Chlorohexylthio)-1H-anthra[1,2-d]imidazole-6,11-dione] | 78 ± 5 | 60 ± 2 | 81 ± 1 | – | in this category | – | – | – | – |
| O=C1c2ccccc2C(=O)c2c1ccc1nc(SCCN3CCOCC3)[nH]c21 [f1-13, 2-(2-morpholinoethylthio)-1H-anthra[1,2-d]imidazole-6,11-dione] | 38 ± 9 | 68 ± 2 | 62 ± 8 | – | – | – | – | – | – |
| O=C1c2ccccc2C(=O)c2c1ccc1nc(SCCCN3CCCCC3)[nH]c21 [f1-14, 2-(3-(piperidin-1-yl)propylthio)-1H-anthra[1,2-d]imidazole-6,11-dione] | 6 ± 10 | 10 ± 2 | 12 ± 1 | – | – | – | – | – | – |
| O=C1c2ccccc2C(=O)c2c1ccc1nc(SCC(=O)N3CCOCC3)[nH]c21 [f1-16, 2-(2-morpholino-2-oxoethylthio)-1H-anthra[1,2-d]imidazole-6,11-dione] | 30 ± 9 | 39 ± 2 | 60 ± 1 | – | – | – | – | – | – |
| O=C1c2ccccc2C(=O)c2c1ccc1nc(SCCC(=O)N3CCOCC3)[nH]c21 [f1-17, 2-(3-morpholino-3-oxopropylthio)-1H-anthra[1,2-d]imidazole-6,11-dione] | 23 ± 10 | 48 ± 1 | 80 ± 0 | – | – | without cell toxicity for normal cell SVGP p12 | in this category | – | – |
| CCN(CC)C(=O)CCSc1nc2ccc3c(c2[nH]1)C(=O)c1ccccc1C3=O [f1-20, 3-(6,11-dioxo-6,11-dihydro-1H-anthra[1,2-d]imidazol-2-ylthio)-N,N-diethylpropanamide] | 28 ± 11 | 30 ± 2 | 46 ± 2 | – | – | – | – | – | – |
| O=C1c2ccccc2C(=O)c2c1ccc1nc(SCCC(=O)N3CCCC3)[nH]c21 [f1-22, 2-(3-oxo-3-(pyrrolidin-1-yl)propylthio)-1H-anthra[1,2-d]imidazole-6,11-dione] | 40 ± 15 | 28 ± 2 | 80 ± 3 | in this category | – | – | – | – | – |
| CCCN(CCC)C(=O)CSc1nc2ccc3c(c2[nH]1)C(=O)c1ccccc1C3=O [f1-23, 2-(6,11-dioxo-6,11-dihydro-1H-anthra[1,2-d]imidazol-2-ylthio)-N,N-dipropylacetamide] | 82 ± 15 | 18 ± 0 | 80 ± 7 | in this category | – | – | – | – | – |
| O=C(CCc1ccccc1)Sc1nc2ccc3c(c2[nH]1)C(=O)c1ccccc1C3=O [f2-4, S-6,11-dioxo-6,11-dihydro-1H-anthra[1,2-d]imidazol-2-yl 3-phenylpropanethioate] | 62 ± 15 | 72 ± 6 | 61 ± 2 | – | – | – | – | – | – |
| O=C(Sc1nc2ccc3c(c2[nH]1)C(=O)c1ccccc1C3=O)c1cc(C(F)(F)F)ccc1C(F)(F)F [f2-5, S-6,11-dioxo-6,11-dihydro-1H-anthra[1,2-d]imidazol-2-yl 2,5-bis(trifluoromethyl)benzothioate] | 40 ± 13 | 68 ± 6 | 82 ± 1 | – | in this category | – | – | – | – |
| O=C1c2ccccc2C(=O)c2c1ccc1nc(SC(=O)N3CCCC3)[nH]c21 [f2-7, S-6,11-dioxo-6,11-dihydro-1H-anthra[1,2-d]imidazol-2-yl pyrrolidine-1-carbothioate] | 72 ± 18 | 42 ± 7 | 62 ± 5 | – | – | – | – | exhibited inhibitory effect against tumor cell GBM8401 | – |
| O=C1c2ccccc2C(=O)c2c1ccc1nc(SC(=O)N3CCCCC3)[nH]c21 [f2-8, S-6,11-dioxo-6,11-dihydro-1H-anthra[1,2-d]imidazol-2-yl piperidine-1-carbothioate] | 99 ± 25 | 100 ± 0 | 92 ± 3 | – | – | – | – | – | – |
| CCN(CC)C(=O)Sc1nc2ccc3c(c2[nH]1)C(=O)c1ccccc1C3=O [f2-9, S-6,11-dioxo-6,11-dihydro-1H-anthra[1,2-d]imidazol-2-yl diethylcarbamothioate] | 46 ± 13 | 50 ± 0 | 90 ± 8 | – | in this category | – | – | exhibited inhibitory effect against tumor cell GBM8401 | exhibited inhibitory effect against tumor cell GBM8901 |

— US8067454B2, “Thio-substituted Anthra [1, 2-d] imidazole- 6, 11-dione derivatives, preparation method and application thereof” (National Defense Medical Center, priority 2010, dated 2011)
